In article PMC6441926 (Molecular Oncology, 2019):
Residues, ends and D or L forms follow the SMILES beside them. *: point of attachment. Cbz = O=C(OCc1ccccc1)*

What was measured:
[1] = system: primary lung cancer cells; assay: Collagen gel droplet embedded 3D-culture (CD-DST) of primary lung cancer cells; type: cell-based; conditions: Homo sapiens; 15 primary lung cancer samples, 4 μM for 24 h, then cultured another 5 days, neutral red; read-out: viable cell percentage
Experimental: Collagen gel droplet embedded 3D‐culture system (CD‐DST) system was performed using a Tumor chemo‐sensitivity assay kit provided by Guangzhou Darui Biotechnology Co., Ltd (Guangzhou, China) (Hou et al., 2017). Briefly, 0.1–0.5 g freshly dissected human lung cancer tissues were digested by trypsin and incubated in collagen gel‐coated flasks. Then, cells were collected and incubated in a collagen gel droplet at the density of 4000 cells per droplet (the volume of each droplet was 30 μL). […] Cells were visualized by neutral red stain and observed using cell analysis system DR6690 (Guangzhou Darui Biotechnology Co., Ltd). Survival rates were calculated as (absorbance 540 nm of treatment group/absorbance 540 nm of control group) × 100%.
Table S2. Cell viability of 15 primary lung cancer cells after treatment with 4 μM of compounds for 24 h, and cultured for another 120 h before neutral red stain and fixation. Cell viability was calculated observed using specific cell analysis system DR6690 (Guangzhou Darui Biotechnology Co., Ltd, Guangzhou, China). Survival rates were calculated as (O.D. 540nm treatment group/O.D. 540nm control group) × 100%.

A549 cells = assay: CCK-8 cell viability assay, A549; type: cell-based; conditions: for IC50: Homo sapiens, A549, CCK-8, 48 h, EGFR wild-type
Experimental: Cell proliferation was measured by Cell Counting Kit‐8 (CCK‐8) assay (Bestbio, Shanghai, China). Cells were cultured in 96‐well plates at a concentration of 7 × 10^3/well for 24 h. If necessary, cells were pretreated with 25 or 50 μM of Z‐VAD‐FMK for 4 h. […] Supernatant was totally removed and 100 μL of CCK‐8 solution was added to each well and cultured for another 2 h at 37 °C. Cell viability was quantified using a SpectraMax M2e (Molecular Devices, San Jose, CA, USA) at 450 nm. Cell viability was calculated for each well as (absorbance 450 nm of treated cells/absorbance 450 nm of control cells) × 100%. Assays were performed on three independent experiments.

H1975 cells = assay: CCK-8 cell viability assay, H1975; type: cell-based; conditions: Homo sapiens, NCI-H1975; CCK-8, 48 h, EGFR L858R/T790M
Experimental: (§1) Cell proliferation was measured by Cell Counting Kit‐8 (CCK‐8) assay (Bestbio, Shanghai, China). Cells were cultured in 96‐well plates at a concentration of 7 × 10^3/well for 24 h. If necessary, cells were pretreated with 25 or 50 μM of Z‐VAD‐FMK for 4 h. Then cells were treated with indicated concentrations of compounds for 48 h. Supernatant was totally removed and 100 μL of CCK‐8 solution was added to each well and cultured for another 2 h at 37 °C. Cell viability was quantified using a SpectraMax M2e (Molecular Devices, San Jose, CA, USA) at 450 nm. Cell viability was calculated for each well as (absorbance 450 nm of treated cells/absorbance 450 nm of control cells) × 100%. Assays were performed on three independent experiments.

Mcl-1 = assay: Western blot of Mcl-1 protein level in A549 cells; type: cell-based; conditions: 8 h
Experimental: After treated with different concentrations of compounds, total proteins were extracted using RIPA lysing buffer. […] The membranes were blocked with 5% non‐fat milk at room temperature for 1 h, and then incubated with primary antibodies overnight at 4 °C. After washing with Tris buffered saline with Tween 20 (TBST), membranes were incubated with secondary antibodies at room temperature for another 1 h. The protein bands were visualized by adding ECL system WBKLS0050 (EMD Millipore, Billerica, MA, USA) and analyzed using Bio‐Rad Laboratories Quantity One software (Bio‐Rad).

p70S6K = p70S6K (Homo sapiens, UniProt P23443); assay: Kinase inhibition ELISA, p70S6K; type: biochemical; conditions: ELISA kinase assay
Sequence of p70S6K (P23443 whole entry): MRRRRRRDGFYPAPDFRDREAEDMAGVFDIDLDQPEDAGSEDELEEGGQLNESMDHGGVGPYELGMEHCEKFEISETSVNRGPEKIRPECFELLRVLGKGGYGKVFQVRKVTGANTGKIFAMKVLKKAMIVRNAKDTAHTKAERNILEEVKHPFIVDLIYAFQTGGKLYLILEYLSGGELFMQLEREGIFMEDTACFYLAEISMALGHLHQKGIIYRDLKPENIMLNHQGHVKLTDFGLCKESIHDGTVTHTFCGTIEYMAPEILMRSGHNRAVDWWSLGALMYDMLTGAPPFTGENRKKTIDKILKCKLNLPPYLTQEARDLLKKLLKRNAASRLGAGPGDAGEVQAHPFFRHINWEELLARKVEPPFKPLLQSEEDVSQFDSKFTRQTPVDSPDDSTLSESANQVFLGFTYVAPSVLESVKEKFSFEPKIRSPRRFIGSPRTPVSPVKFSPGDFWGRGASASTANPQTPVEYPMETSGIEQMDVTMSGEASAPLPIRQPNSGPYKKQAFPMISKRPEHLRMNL
Excerpt: (§2) ELISA was used to determine the inhibitory effect of Ibr‐7 on five kinases after molecular modification. […] Since p‐S6 is the downstream functional factor that controls the translational process, we attempted to determine the role of p‐S6 in the Ibr‐7 antitumor effect.

AKT1 = AKT1 (Homo sapiens, UniProt P31749); assay: Kinase inhibition ELISA, AKT1; type: biochemical; conditions: ELISA kinase assay
Sequence of AKT1 (P31749 whole entry): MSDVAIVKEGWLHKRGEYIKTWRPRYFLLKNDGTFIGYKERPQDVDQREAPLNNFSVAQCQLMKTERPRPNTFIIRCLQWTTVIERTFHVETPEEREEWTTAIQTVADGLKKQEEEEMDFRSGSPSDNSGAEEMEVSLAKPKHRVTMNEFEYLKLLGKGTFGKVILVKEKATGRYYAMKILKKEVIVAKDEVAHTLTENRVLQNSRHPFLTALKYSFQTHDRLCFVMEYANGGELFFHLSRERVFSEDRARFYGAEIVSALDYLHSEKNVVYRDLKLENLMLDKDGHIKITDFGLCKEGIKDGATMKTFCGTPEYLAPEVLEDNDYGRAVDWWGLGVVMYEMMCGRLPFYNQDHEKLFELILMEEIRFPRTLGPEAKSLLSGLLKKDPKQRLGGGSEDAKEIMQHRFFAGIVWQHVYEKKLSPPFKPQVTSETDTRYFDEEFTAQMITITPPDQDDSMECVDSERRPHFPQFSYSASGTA
Excerpt: as §2

EGFR [2] = molecular target: T1, EGFR (Homo sapiens, UniProt P00533); assay: Kinase inhibition ELISA, EGFR; type: biochemical; conditions: ELISA kinase assay
T1 sequence (P00533 25-1210): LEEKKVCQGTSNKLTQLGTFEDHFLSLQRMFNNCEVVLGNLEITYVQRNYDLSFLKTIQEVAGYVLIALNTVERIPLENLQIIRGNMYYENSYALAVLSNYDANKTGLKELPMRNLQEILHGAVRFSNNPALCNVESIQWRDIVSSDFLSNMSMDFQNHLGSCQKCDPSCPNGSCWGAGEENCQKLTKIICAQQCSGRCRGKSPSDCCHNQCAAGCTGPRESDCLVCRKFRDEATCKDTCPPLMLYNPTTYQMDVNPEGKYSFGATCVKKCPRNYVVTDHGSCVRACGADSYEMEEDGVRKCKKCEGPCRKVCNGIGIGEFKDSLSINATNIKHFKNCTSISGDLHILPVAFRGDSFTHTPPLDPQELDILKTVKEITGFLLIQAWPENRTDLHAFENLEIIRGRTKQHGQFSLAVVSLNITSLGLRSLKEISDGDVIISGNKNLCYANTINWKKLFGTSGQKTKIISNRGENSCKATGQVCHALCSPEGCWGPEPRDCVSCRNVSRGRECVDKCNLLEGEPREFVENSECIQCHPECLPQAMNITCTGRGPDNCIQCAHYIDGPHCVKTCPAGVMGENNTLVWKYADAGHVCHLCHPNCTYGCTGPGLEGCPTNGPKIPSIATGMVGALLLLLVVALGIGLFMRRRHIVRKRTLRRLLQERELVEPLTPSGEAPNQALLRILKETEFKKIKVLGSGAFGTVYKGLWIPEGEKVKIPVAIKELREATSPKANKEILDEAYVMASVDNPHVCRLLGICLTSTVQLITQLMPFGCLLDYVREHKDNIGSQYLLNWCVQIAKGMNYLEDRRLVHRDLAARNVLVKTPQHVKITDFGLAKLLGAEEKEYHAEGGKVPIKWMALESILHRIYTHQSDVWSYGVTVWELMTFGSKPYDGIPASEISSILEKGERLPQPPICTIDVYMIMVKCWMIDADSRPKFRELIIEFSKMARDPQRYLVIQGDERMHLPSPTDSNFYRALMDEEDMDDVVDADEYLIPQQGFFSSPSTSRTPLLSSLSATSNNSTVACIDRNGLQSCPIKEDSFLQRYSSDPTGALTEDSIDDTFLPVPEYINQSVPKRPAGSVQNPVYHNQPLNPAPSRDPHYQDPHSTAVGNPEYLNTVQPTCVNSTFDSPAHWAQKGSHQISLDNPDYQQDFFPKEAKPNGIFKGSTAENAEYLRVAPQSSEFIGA
Excerpt: as §2

PI3Ka = PI3Ka (Homo sapiens, UniProt P42336); assay: Kinase inhibition ELISA, PI3Ka; type: biochemical; conditions: ELISA kinase assay
Sequence of PI3Ka (P42336 whole entry): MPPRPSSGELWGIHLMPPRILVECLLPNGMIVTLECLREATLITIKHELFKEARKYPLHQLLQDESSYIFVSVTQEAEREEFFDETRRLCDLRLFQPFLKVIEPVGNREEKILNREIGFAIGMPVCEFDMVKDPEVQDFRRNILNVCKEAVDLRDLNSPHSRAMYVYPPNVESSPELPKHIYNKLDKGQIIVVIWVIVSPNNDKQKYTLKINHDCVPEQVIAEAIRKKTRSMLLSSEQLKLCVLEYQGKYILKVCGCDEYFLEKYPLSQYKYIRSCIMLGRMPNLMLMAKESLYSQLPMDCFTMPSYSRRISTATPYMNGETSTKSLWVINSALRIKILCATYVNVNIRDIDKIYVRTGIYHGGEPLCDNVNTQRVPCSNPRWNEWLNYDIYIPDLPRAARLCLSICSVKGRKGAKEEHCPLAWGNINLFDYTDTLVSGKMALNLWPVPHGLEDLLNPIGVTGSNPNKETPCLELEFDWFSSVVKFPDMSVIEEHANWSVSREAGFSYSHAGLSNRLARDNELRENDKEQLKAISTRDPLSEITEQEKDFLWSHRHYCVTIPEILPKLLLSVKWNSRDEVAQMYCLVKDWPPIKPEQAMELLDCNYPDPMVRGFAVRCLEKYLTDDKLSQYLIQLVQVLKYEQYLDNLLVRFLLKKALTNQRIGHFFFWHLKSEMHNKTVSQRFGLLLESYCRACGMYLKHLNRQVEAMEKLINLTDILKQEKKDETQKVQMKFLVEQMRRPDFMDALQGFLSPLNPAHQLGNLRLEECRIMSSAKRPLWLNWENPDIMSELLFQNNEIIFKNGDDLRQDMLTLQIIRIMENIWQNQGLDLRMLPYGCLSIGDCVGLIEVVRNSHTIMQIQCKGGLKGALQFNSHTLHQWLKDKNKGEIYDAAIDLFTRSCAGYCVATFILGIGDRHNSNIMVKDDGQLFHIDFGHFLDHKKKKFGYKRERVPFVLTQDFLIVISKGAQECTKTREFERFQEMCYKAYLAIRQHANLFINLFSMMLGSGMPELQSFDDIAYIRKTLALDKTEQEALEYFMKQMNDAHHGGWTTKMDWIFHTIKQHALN
Sequence of PI3Ka (P27986 whole entry partner): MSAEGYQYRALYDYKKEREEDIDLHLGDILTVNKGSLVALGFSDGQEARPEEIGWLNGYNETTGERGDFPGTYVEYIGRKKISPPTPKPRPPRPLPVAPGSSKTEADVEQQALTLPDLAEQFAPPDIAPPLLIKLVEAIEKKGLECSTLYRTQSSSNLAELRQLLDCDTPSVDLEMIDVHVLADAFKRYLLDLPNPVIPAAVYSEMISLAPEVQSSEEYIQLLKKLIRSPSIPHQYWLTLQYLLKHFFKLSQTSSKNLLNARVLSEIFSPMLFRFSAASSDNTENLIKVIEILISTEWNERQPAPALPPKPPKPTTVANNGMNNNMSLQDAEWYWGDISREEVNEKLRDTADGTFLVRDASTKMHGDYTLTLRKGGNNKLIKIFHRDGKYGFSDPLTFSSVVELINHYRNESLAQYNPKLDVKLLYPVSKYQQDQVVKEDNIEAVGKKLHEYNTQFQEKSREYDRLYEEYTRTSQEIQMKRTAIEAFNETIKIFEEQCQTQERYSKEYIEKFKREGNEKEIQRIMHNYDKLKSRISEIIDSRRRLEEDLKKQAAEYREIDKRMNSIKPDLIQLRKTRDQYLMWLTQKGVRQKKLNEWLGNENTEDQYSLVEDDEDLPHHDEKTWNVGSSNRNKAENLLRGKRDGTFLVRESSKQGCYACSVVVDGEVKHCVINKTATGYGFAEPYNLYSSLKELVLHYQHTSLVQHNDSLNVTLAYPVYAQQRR
Excerpt: as §2

mTOR [3] = molecular target: mTOR (Homo sapiens, UniProt P42345); assay: Kinase inhibition ELISA, mTOR; type: biochemical; conditions: ELISA kinase assay
Excerpt: as §2

PC-9 cells = assay: CCK-8 cell viability assay, PC-9; type: cell-based; conditions: Homo sapiens, CCK-8, 48 h, EGFR exon 19 deletion
Experimental: as §1

H460 cells = assay: CCK-8 cell viability assay, H460; type: cell-based; conditions: Homo sapiens, NCI-H460; CCK-8, 48 h, EGFR wild-type
Experimental: as §1

[4] = Pharmacokinetics in SD rat; type: in vivo; conditions: po, intragastric 30 mg/kg
Experimental: Table S3. PK parameters of Ibr-7 in SD rat (i.g 30 mg/kg). Ibr-7 was orally administrated at the dose of 30 mg/kg. At each time point, 0.1 ml of rat blood was gained through retro-orbital plexus and then centrifuged at 5,000 rpm, 4 ℃ for 10 min. 10 μl of sample was mixed with 100 μl of internal reference (Buspirone 50 ng/ml, terfenadine 50 ng/ml), and vortexed for 60 s. After centrifuging at 12,000 rpm for 3 min, the supernatant was collected and transferred to an equal volume of distilled water into the 96-well plate. The final injection volume was 10 μl. Samples were analyzed by LC-MS/MS (API 4000QTRAP) and data was processed by Analyst v 1.5.1.

A549 xenograft = assay: A549 tumor xenograft assay; type: in vivo; conditions: A549 xenograft nude mice, 60 mg·kg^−1 intragastric twice per day
Experimental: All animal experiments were conducted according to the Institutional Animal Care and Use Committee (IACUC). A total of 5 × 10^6 A549 cells was resuspended in 200 μL PBS and injected subcutaneously into each 4‐week‐old female nude mice. Once the tumor volume had reached 100–200 mm^3, six mice were randomized into each group. […] Then, 2.375 mL of 20% HP‐beta‐cyclodextrin was added to the above mixture to make a final concentration of 6 mg·mL^−1. […] Tumor volumes were determined from caliper measurements of tumor length (L) and width (W) according to the formula (L × W^2)/2. The relative tumor volume (RTV) was calculated using the following formula: RTV = (tumor volume on measured day)/(tumor volume on day 0).

EGFR [5] = molecular target: T1, EGFR; assay: SILAC phosphoproteomics in A549 cells, EGFR; type: cell-based; conditions: 8 μM, 8 h, treated versus untreated
Experimental: (§3) A549 cells were cultured in F12 and supplemented with either (U‐12C6)‐L‐lysine (light) or (U‐13C6)‐L‐lysine (heavy) for at least eight generations. The heavy labeling efficiency was measured by mass spectrometer analysis. Cells were continuously maintained in SILAC medium until they reached the desired confluence. Cells were treated with 8 μM of Ibr‐7 for 8 h, and then harvested by trypsinization. The enriched fractions were analyzed by mass spectrometry.

mTOR [6] = assay: SILAC phosphoproteomics in A549 cells, mTOR; type: cell-based; conditions: 8 μM, 8 h, treated versus untreated
Experimental: as §3

RPS6KA1 = assay: SILAC phosphoproteomics in A549 cells, RPS6KA1; type: cell-based; conditions: 8 μM, 8 h, treated versus untreated
Experimental: as §3

RPS6 = assay: SILAC phosphoproteomics in A549 cells, RPS6; type: cell-based; conditions: 8 μM, 8 h, treated versus untreated
Experimental: as §3

EIF2S2 = assay: SILAC phosphoproteomics in A549 cells, EIF2S2; type: cell-based; conditions: 8 μM, 8 h, treated versus untreated
Experimental: as §3

LARP1 = assay: SILAC phosphoproteomics in A549 cells, LARP1; type: cell-based; conditions: 8 μM, 8 h, treated versus untreated
Experimental: as §3

Compound: C=CC(=O)Nc1cc(Nc2nccc(-c3cn(C)c4ccccc34)n2)c(OC)cc1N(C)CCN(C)C [AZD‐9291]
- viability at 4 µM [1]: 57%

Compound: CC1(C)CCC(CN2CCN(c3ccc(C(=O)NS(=O)(=O)c4ccc(NCC5CCOCC5)c([N+](=O)[O-])c4)c(Oc4cnc5[nH]ccc5c4)c3)CC2)=C(c2ccc(Cl)cc2)C1 [ABT‐199]
- IC50 (A549 cells): > 10000 nM
- IC50 (H1975 cells): > 10000 nM
- Mcl-1 band intensity (Mcl-1): 1.30

Compound: C=C(Br)C(=O)N1CCCC(n2nc(-c3ccc(Oc4ccccc4)cn3)c3c(N)ncnc32)C1 (centres unmarked) [Ibr‐7]
- IC50 (p70S6K): > 1000 nM
- IC50 (AKT1): > 1000 nM
- IC50 (EGFR [2]): 61 nM
- IC50 (PI3Ka): > 1000 nM
- IC50 (mTOR [3]): > 1000 nM
- IC50 (A549 cells): 1000 to 4000 nM
- IC50 (H1975 cells): 1000 to 4000 nM
- IC50 (PC-9 cells): 1000 to 4000 nM
- IC50 (H460 cells): 1000 to 4000 nM
- viability at 4 µM [1]: 40.3%
- Cmax [4]: 304 ng/mL
- anti-tumor activity by relative tumor volume (RTV) (A549 xenograft): the same anti‐tumor activity as ibrutinib
- effect on mice bodyweight (A549 xenograft): without affecting the mice bodyweight
- Decrease fold of phosphorylated EGFR, position 693 (EGFR [5]): 1.76 fold
- Decrease fold of phosphorylated EGFR, position 991 (EGFR [5]): 2.03 fold
- Decrease fold of phosphorylated mTOR, position 2481 (mTOR [6]): 2.23 fold
- Decrease fold of phosphorylated RPS6KA1, position 359 (RPS6KA1): 1.59 fold
- Decrease fold of phosphorylated RPS6KA1, position 363 (RPS6KA1): 1.54 fold
- Decrease fold of phosphorylated RPS6, position 244 (RPS6): 2.17 fold
- Decrease fold of phosphorylated EIF2S2, position 67 (EIF2S2): 1.99 fold
- Decrease fold of phosphorylated EIF2S2, position 111 (EIF2S2): 1.58 fold
- Decrease fold of phosphorylated LARP1, position 548 (LARP1): 1.90 fold
- Decrease fold of phosphorylated LARP1, position 766 (LARP1): 4.70 fold
- Decrease fold of phosphorylated LARP1, position 824 (LARP1): 2.34 fold

Compound: CC(C)C[C@@H](C=O)NC(=O)[C@H](CC(C)C)NC(=O)[C@H](CC(C)C)NC(=O)OCc1ccccc1 [MG‐132] (Cbz-Leu-Leu-Leu-aldehyde)
- cytotoxicity on A549 cells (A549 cells; 10 μM, 24 h, CCK-8): no cytotoxicity effect

Compound: C=CC(=O)N1CCC[C@@H](n2nc(-c3ccc(Oc4ccccc4)cc3)c3c(N)ncnc32)C1 [ibrutinib, Ibrutinib, reference compound]
- IC50 (PI3Ka): > 1000 nM
- IC50 (mTOR [3]): > 1000 nM
- viability at 4 µM [1]: 88.1%
